Source: US11236052B2, “Aminobenzimidazole derivatives, treatments, and methods of inhibiting histone deacetylase” (TRANSLATIONAL DRUG DEVELOPMENT, LLC, priority 2017, dated 2022)
Like-named read-outs stand apart in the source and are kept apart here.

Assays:
HDAC6 = HDAC6 (Homo sapiens (Human), UniProt Q9UBN7); experiment: In vitro HDAC enzyme inhibition, mobility shift; type: biochemical; settings: purified enzyme
Protocol: (§1) Purified histone deacetylase enzymes 1, 3, 6, 10 were incubated with fluorescently labeled substrate and test compounds in a standardized reaction mixture in 384 well plates. Upon termination of the reaction, samples were introduced onto microfluidic chips. Samples migrate through channels in the chips and product and substrate are separated based on the difference in their charge and mass (electrophoretic mobility shift). Enzyme activity is measured by direct comparison of the fluorescence in the product and substrate peaks and the results presented in Table 4.

HDAC3 = HDAC3 (Homo sapiens (Human), UniProt O15379); experiment: In vitro HDAC enzyme inhibition, mobility shift; type: biochemical; settings: purified enzyme
Protocol: as §1

HDAC10 = HDAC10 (Homo sapiens (Human), UniProt Q969S8); experiment: In vitro HDAC enzyme inhibition, mobility shift; type: biochemical; settings: purified enzyme
Protocol: as §1

HDAC1 = HDAC1 (Homo sapiens (Human), UniProt Q13547); experiment: In vitro HDAC enzyme inhibition, mobility shift; type: biochemical; settings: purified enzyme
Protocol: as §1

Permeability (PAMPA) = type: in vitro ADME; settings: read-out: Permeabiltiy (PAMPA)
S9 in vitro half-life = type: in vitro ADME; settings: S9 fraction
MM1.S cells = experiment: CellTiter-Glo cell viability assay, MM1.S cells; type: cell-based, human; settings: Homo sapiens; MM1.S cells, 72 hours treatment; read-out: IC50 in MM1.S
Protocol: Cell viability in the presence of varying concentrations of the above listed compounds at different time points was used to assess cytotoxicity and the effect of the compounds on cell proliferation.
(§2) Cell Viability Assay—Cell viability was measured by the CellTiter-GlO® cell viability assay from Promega (Madison, Wis.). The CellTiter-GlO® Luminescent Cell Viability Assay is a homogeneous method to determine the number of viable cells in culture based on quantitation of the ATP present, which signals the presence of metabolically active cells. Following treatment, CellTiter-GlO® is added to treatment wells and incubated at 37° C. luminescence values were measured at using a Molecular Devices Spectramax microplate reader
(§3) Single Agent Studies—Cells were grown to 70% confluency, trypsinized, counted, and seeded in 96 well flat-bottom plates at a final concentration of 2.5×10^3-5×10^3 cells/well (Day 0). Cells were allowed to incubate in growth media for 24 hours. Treatment with the test agents or standard agents began on Day 1 and continued for 72 hours. At the 72 hour timepoint, treatment containing media was removed. Viable cell numbers are quantified by the CellTiter-GlO® cell viability assay as described above. Results from these studies were used to calculate an IC50 value (concentration of drug that inhibits cell growth by 50 percent of control) for each compound.
Data Collection—For single agent and combination studies, data from each experiment was collected and expressed as % Cell Growth using the following calculation: Cell Growth=(ftest/fvehicle)×100
Where ftest is the fluorescence of the tested sample, and fvehicle is the fluorescence of the vehicle in which the drug is dissolved. Dose response graphs and IC50 values were generated using Prism 6 software (GraphPad) using the following equation: […]
Where X is the logarithm of concentration and Y is the response. Y starts at the Bottom and goes to Top with a sigmoid shape.
as §2, with “CellTiter-Glo®” for “CellTiter-GlO®”, “assay” for “assay from”, “reader.” for “reader”
as §3, with “agents” for “agents or standard agents”, “72-hour time point, treatment-containing” for “72 hour timepoint, treatment containing”, “CellTiter-Glo®” for “CellTiter-GlO®”, “above. Experiments were run with triplicate concentrations to determine growth inhibitory activity.” for “above.”
Data Collection—For single agent and combination studies, data from each experiment was collected and expressed as % Cell Growth using the following calculation: % Cell Growth=(ftest/fvehicle)×100
Where ftest is the luminescence of the tested sample, and fvehicle is the luminescence of the vehicle in which the drug is dissolved. Dose response graphs and IC50 values were generated using Prism 6 software (GraphPad).

[1] = Pharmacokinetic studies in the mouse; type: in vivo
Protocol: Plasma samples were collected from healthy mice and analyzed for levels of compound ID #1, ID #2, and ID #3 and reported in Table 5. In brief, compounds were individually and accurately weighed out to produce a stock solution in Dimethyl-sulfoxide (DMSO) at a concentration of 2 mg/mL and stored at −20° C. From the stock solution, a working stock was prepared by diluting it in Methanol-Water 50:50 (v/v) at 20 μg/mL for calibration curve preparation and stored at 4° C. Standards used for quantitation and quality control samples (QC's) were prepared on the same day of sample processing using blank plasma obtained from non-treated mice. For each analyte, standards were prepared through serial dilution of the working stock at concentrations of 0.1, 0.5, 1.0, 10, 50, 100, 500 and 1000 ng/mL; QC's were prepared at intermediate concentrations of 0.75, 7.5, 75 and 750 ng/mL. Plasma samples were stored at −80° C. until ready for analysis and then placed on ice for thawing. An aliquot of 20 μL for samples, standards and QC's, were transferred into a 96-well extraction plate according to a pre-defined layout. Appropriate volume of Methanol-Formic Acid 99.9-0.1 containing internal standard (Verapamil at 25 ng/mL) was added to each well and samples were extracted under vacuum. Eluent was then transferred into a LCMS plate for analysis using a suitable column for separation and MRM detection. Concentration of analytes was calculated based on the calibration curve and analyzed for pharmacokinetic parameters by using Non-compartmental analysis (NCA) using WinNonlin Phoenix software. Parameters such as Cmax, Tmax, half-life, AUC(0-last), AUC(0-∞), volume of distribution (Vss) and clearance (Cl/F) were reported.
The analogs were tested for pharmacokinetic analysis in the mouse with doses of 1 mg/kg for intravenous (IV) route and 5 mg/kg for oral (P0) route. […] Overall exposure following IV dose also favored compound ID #1 with AUCO-∞ 1488.1 hr*ng/mL whereas compound ID #2 and ID #3 were 329.1 and 1193.7 hr*ng/mL, respectively.

Chain of HDAC3 (O15379 whole entry): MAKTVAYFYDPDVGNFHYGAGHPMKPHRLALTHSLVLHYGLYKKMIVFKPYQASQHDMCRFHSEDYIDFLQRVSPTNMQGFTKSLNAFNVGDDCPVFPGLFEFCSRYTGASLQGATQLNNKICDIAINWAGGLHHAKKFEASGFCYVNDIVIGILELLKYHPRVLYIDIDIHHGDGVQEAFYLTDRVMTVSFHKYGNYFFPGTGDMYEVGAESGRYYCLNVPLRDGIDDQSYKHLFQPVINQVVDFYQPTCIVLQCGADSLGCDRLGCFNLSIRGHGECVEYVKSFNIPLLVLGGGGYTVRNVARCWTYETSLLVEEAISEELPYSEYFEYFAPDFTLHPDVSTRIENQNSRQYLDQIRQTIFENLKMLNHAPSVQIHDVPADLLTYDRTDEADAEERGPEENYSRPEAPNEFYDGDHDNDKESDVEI
Chain of HDAC3 (Q9Y618 395-489 partner): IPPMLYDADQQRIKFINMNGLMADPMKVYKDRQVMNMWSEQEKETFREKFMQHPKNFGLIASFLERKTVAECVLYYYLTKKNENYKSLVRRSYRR
Chain of HDAC6 (Q9UBN7 whole entry): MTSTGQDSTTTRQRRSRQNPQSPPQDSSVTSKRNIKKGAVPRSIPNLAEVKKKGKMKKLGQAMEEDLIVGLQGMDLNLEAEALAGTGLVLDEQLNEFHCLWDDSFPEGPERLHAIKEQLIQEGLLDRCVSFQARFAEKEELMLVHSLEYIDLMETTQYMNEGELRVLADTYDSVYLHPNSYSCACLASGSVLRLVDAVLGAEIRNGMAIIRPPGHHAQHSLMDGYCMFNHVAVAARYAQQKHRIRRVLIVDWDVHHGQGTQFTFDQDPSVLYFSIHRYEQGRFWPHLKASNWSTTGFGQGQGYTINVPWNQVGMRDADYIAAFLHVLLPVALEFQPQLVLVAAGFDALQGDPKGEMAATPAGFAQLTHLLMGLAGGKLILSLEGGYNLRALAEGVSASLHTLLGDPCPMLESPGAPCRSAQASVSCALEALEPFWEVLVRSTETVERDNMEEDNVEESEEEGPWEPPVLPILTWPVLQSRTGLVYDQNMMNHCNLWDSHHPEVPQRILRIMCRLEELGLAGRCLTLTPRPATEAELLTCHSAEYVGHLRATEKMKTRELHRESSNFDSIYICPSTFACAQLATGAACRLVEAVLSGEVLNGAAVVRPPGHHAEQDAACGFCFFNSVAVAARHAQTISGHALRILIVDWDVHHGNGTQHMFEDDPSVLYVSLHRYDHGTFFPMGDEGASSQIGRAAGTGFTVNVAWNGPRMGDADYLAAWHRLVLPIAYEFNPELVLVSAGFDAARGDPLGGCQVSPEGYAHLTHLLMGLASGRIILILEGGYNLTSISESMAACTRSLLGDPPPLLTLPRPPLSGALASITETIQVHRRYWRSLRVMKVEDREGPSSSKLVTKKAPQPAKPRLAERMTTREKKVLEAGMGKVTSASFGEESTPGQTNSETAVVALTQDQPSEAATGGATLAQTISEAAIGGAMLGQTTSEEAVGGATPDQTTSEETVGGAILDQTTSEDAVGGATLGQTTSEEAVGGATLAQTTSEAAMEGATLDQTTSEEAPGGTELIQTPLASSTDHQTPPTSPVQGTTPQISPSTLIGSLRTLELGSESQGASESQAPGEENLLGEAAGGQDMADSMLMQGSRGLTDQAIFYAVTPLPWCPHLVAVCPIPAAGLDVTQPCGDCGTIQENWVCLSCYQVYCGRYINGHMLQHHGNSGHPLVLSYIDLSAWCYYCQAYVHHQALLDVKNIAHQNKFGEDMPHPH
Chain of HDAC10 (Q969S8 whole entry): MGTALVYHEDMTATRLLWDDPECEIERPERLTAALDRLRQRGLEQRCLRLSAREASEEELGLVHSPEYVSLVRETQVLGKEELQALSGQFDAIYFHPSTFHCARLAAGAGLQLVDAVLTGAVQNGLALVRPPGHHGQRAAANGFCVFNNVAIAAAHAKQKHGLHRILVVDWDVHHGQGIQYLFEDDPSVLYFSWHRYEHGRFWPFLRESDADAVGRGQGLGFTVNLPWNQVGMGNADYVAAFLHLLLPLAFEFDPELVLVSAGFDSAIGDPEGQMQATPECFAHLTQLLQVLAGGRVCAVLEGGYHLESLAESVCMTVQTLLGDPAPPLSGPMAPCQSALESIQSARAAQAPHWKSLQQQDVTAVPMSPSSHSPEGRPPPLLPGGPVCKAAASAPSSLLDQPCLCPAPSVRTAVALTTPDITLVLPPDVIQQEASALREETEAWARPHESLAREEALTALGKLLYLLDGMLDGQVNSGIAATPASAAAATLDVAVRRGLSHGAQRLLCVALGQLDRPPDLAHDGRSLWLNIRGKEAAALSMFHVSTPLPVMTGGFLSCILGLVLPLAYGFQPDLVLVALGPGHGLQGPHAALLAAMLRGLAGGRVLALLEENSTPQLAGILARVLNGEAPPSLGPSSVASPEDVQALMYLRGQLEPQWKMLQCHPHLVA
Chain of HDAC1 (Q13547 whole entry): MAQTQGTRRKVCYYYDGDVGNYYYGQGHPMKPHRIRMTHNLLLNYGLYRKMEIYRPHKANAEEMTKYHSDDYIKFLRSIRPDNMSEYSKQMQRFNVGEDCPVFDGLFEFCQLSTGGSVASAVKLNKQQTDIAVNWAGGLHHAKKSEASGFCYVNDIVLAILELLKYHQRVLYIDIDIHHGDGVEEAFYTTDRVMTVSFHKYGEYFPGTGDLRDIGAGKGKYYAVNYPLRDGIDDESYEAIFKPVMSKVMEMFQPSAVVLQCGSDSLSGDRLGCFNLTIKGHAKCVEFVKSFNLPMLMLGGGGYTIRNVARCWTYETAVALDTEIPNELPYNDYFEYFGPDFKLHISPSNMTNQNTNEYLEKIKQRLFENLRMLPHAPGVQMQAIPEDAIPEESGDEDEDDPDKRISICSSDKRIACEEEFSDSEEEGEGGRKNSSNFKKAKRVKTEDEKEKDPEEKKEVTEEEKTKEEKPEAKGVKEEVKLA

## O=C(NO)c1ccc(Nc2nc3ccccc3n2C2CCCCC2)cc1 [ID #2, 4-((1-cyclohexyl-1H-benzo[d]imidazol-2-yl)amino)-N-hydroxybenzamide]
HDAC6
  IC50: 0.015 µM
HDAC3
  IC50: 0.068 µM
HDAC10
  IC50: 3.56 µM
HDAC1
  IC50: 0.385 µM
Permeability (PAMPA)
  Papp: 1.65 ×10⁻⁶ cm/s
S9 in vitro half-life
  half-life: > 1.5 h
MM1.S cells
  IC50: 2000 nM
[1]; 1.0 mg/kg IV
  AUC0-∞: 329.14 ng·h/mL
  AUC % Extrap: 1.44%
  Cl/F obs: 50.7 mL/min/kg
  Rsq (>0.85): 0.85
  half-life: 1.20 h
[1]; 5.0 mg/kg PO
  AUC % Extrap: 0.14%
  Cmax: 407.10 ng/mL
  Rsq (>0.85): 1.00
[1]; plasma, 1.0 mg/kg IV
  AUC(0-t): 324 ng·h/mL
  Tmax: 0.08 h
[1]; plasma, 1.0 mg/kg IV, read-out: Half-life (converted)
  half-life: 1.2 h
[1]; plasma, 1.0 mg/kg IV, read-out: Vss
  Vd: 3.5 L/kg
[1]; plasma, 5.0 mg/kg PO
  AUC(0-t): 1280 ng·h/mL
  CL/F: 65.2 mL/min/kg
  Tmax: 0.5 h
  bioavailability: 77.6%
[1]; plasma, 5.0 mg/kg PO, read-out: Half-life (converted)
  half-life: 2.56 h
[1]; plasma, 5.0 mg/kg PO, read-out: Vz/F obs
  Vd/F: 14.5 L/kg
[1]; plasma, iv, 1 mg/kg, 1.0 mg/kg IV, read-out: AUC0-∞
  AUC(0-inf): 329 ng·h/mL
[1]; plasma, iv, 1 mg/kg, 1.0 mg/kg IV, read-out: Cmax
  Cmax: 508 ng/mL
[1]; plasma, po, 5 mg/kg, 5.0 mg/kg PO, read-out: AUC0-∞
  AUC(0-inf): 1280 ng·h/mL
[1]; plasma, po, 5 mg/kg, 5.0 mg/kg PO, read-out: Cmax
  Cmax: 407 ng/mL
[1]; plasma, po, 5 mg/kg, 5 mg/kg oral, read-out: AUC0-∞ (overall exposure following oral doses)
  AUC(0-inf): 1280 ng·h/mL

## O=C(NO)c1ccc(Nc2nc3cc(F)ccc3n2CC2CCOCC2)cc1 [ID #10, 4-((5-fluoro-1-((tetrahydro-2H-pyran-4-yl)methyl)-1H-benzo[d]imidazol-2-yl)amino)-N-hydroxybenzamide]
MM1.S cells
  IC50: 2900 nM

## O=C(NO)c1ccc(Nc2nc3ccccc3n2CC2CCCC2)cc1 [ID #5, 4-((1-(cyclopentylmethyl)-1H-benzo[d]imidazol-2-yl)amino)-N-hydroxybenzamide]
MM1.S cells
  IC50: 2200 nM

## O=C(NO)c1ccc(Nc2nc3ccccc3n2CC2CCOCC2)cc1 [ID #9, N-hydroxy-4-((1-((tetrahydro-2H-pyran-4-yl)methyl)-1H-benzo[d]imidazol-2-yl)amino)benzamide]
MM1.S cells
  IC50: 2900 nM

## O=C(NO)c1ccc(Nc2nc3cc(F)ccc3n2CC2CCC(F)(F)CC2)cc1 [ID #8]
MM1.S cells
  IC50: 1200 nM

## O=C(NO)c1ccc(Nc2nc3ccccc3n2CC2(F)CCCCC2)cc1 [ID #4]
MM1.S cells
  IC50: 2600 nM

## O=C(NO)c1ccc(Nc2nc3ccccc3n2CC2CCC(F)(F)CC2)cc1 [ID #7]
MM1.S cells
  IC50: 700 nM

## O=C(NO)c1ccc(Nc2nc3ccccc3n2CCC2CCCC2)cc1 [ID #6, 4-((1-(2-cyclopentylethyl)-1H-benzo[d]imidazol-2-yl)amino)-N-hydroxybenzamide]
MM1.S cells
  IC50: 1100 nM
